# Columns and labels:
# NFκB promoter activity = test: Inhibition of NFκB promoter activity (β-lactamase reporter) in TNFα-stimulated THP-1 cells; assay type: cell-based, human; conditions: 5 h
# Experimental: Human macrophage THP-1 cells, modified to include the β-lactamase reporter gene, were seeded into wells of a 96-well plate (50×10^3 cells/well) in the presence of RPMI 1640 medium (70 μl). TNFα (7.5 ng/ml) and human sera (final concentration of 20%) were added to each well. Plates were incubated for 5 h at 37° C. to allow for NFkB-stimulated β-lactamase production. LiveBLAzer™ FRET B/G Substrate (CCF4-AM) was then added to assay for β-lactamase activity. Once CCFA-AM enters a cell, it is converted to negatively charged CCF4 by endogenous esterases. Excitation of this substrate at 409 nm leads to efficient FRET between the coumarin and fluorescein moieties, resulting in a green fluorescence detectable at 530 nm. The presence of β-lactamase leads to cleavage of CCF4 and results in a loss of FRET, resulting in a robust blue fluorescent signal detectable at 460 nm. Thus, activity of beta-lactamase (a marker of NFkB-promoter activity) is measured as a product to substrate ratio (blue/green fluorescence ratio: 460 nm/530 nm).
# [1] = system: contractile response of the aortic ring to noradrenaline; test: Vasodilatory activity in the rat aortic ring assay; parameters: species or system rat (Sprague-Dawley); conditions: test compound 1 μg/ml
# Experimental: The vasodilatory capacity of test compounds was examined ex vivo using the rat aortic ring assay.
# Male Sprague-Dawley rats (250±50 g) were euthanized with 80% CO2 and 20% O2. The thoracic aorta was excised and quickly mounted in organ-baths as described (Chin-Dusting et al. 2001). Full concentration-contractile curves were obtained to noradrenaline ([…]) with and without test compounds delivered at a concentration of 1 μg/ml. Experiments were repeated in n=5 different rings from 5 different animals. Only one compound at any one concentration was tested on any one ring from any one animal. Sigmoidal dose response curves were fitted for the data and the logEC50 calculated (Prism 4, GraphPad Software). The difference in these values between the presence and absence of test compound was calculated using a two-tailed paired t test. The effects of β-oestrodiol and vehicle alone were examined as a positive and negative control respectively.
# TX synthase (TXS) = biological target: T1, TX synthase (TXS) (Homo sapiens, UniProt P24557); test: TXB2 synthesis following addition of exogenous PGH2 to U937 cells; assay type: cell-based; conditions: 1, 10, 100 μM, undifferentiated U937 cells, PGH2 5 μM
# T1 construct: endogenous in cells; host or cells: undifferentiated U937 cells
# T1 sequence (P24557 1-533): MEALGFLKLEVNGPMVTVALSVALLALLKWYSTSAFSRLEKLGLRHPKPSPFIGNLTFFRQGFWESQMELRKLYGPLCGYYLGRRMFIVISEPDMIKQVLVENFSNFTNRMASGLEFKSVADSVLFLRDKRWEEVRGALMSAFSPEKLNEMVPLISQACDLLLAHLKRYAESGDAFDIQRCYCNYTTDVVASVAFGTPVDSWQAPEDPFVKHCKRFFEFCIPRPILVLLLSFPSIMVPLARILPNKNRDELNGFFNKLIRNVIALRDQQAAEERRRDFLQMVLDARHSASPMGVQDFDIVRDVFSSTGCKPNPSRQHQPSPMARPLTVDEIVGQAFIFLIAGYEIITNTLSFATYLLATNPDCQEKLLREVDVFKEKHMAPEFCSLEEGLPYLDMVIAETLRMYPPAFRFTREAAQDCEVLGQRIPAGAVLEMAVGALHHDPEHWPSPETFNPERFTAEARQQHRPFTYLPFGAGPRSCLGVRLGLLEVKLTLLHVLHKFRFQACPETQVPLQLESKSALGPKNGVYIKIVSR
# Experimental: To examine effects of test compounds directly on TX synthase (TXS), a different assay system was used. Whereas arachidonic acid (AA) is the substrate for COX, PGH2 is the substrate for TX synthase. To examine directly the effect of these compounds on TXS, exogenous ? elow:
# Test compounds at 0 μM, 1 μM, 10 μM and 100 μM (in DMSO) were incubated with undifferentiated U937 cells (6×10^6/ml) for 30 min at 37° C., after which PGH2 (5 μM) was added. After incubation for 10 min, the reaction was terminated by centrifugation and the supernatants were collected and TXB2 production was measured in triplicate by RIA. ANOVA followed by Newman-Keuls multiple comparisons test was used to examine differences between doses and the control values. A statistical significance level of 0.05 was used and differences from control values are indicated by an asterisk (*).
# female BALB/c mice = test: Absence of gastrointestinal toxicity, gavage for 10 days; assay type: in vivo; conditions: 20 mg/kg daily by gavage for 10 days
# Experimental: Compound 2 at 5 mg/kg (n=3) or vehicle (PEG 400:PBS1:1; n=2) was administered via gavage to female BALB/c mice for 10 days. […] Histology of cecum and colon were normal.
# The diastereoisomeric mixture of Compounds 3a and 3b in PEG 400:PBS1:1 was administered to 7 week old female BALB/c mice (n=8) by gavage at 20 mg/kg daily for 10 days. There was no vehicle control group for comparison.
# Compound 4 at 5 mg/kg (n=3) or vehicle (n=2, PEG:PBS 1:1) was administered via gavage to female BALB/c mice for 10 days. […] Histology of cecum and colon were normal.
# [2] = Anti inflammatory activity (test not specified)
SMILES,inhibition of NFκB compared to vehicle control (NFκB promoter activity),contractile response (logEC50) of the aortic ring to noradrenaline compared with vehicle [1],"thromboxane synthase inhibition (TXB2 synthesis after exogenous PGH2), selectivity in words (TX synthase (TXS))","mean increase in body weight over the 10 days, of the starting weight (female BALB/c mice)","body weight, in words (female BALB/c mice; no vehicle group)",anti inflammatory activity [2]
Cc1c(O)ccc2c1OCC(c1ccc(O)cc1)C2O (stereo not drawn) [Compound 3],significantly (p<0.001) inhibited,significantly inhibited,less specific,5%,all mice maintained body weight,
"Oc1ccc(C23COc4cc(O)ccc4C2O3)cc1 (stereo not drawn) [3,4-epoxy-4′,7-dihydroxyisoflavan]",,,,,,shows anti inflammatory activity

# From US20090131513A1, “ANTI-INFLAMMATORY MODALITIES” (Novogen Research Pty Ltd., priority 2005, published 2009)
